Results published in BindingDB's records for doi:10.1021/jm00388a021 (1987).

Columns and labels:
[1] = target: Thymidine kinase (Herpes simplex virus 1); assay: Compound was evaluated for Kinetic constant for viral thymidine kinase of Herpes simplex virus (HSV) -1
[2] = target: Thymidine kinase (Herpes simplex virus 2); assay: Compound was evaluated for Kinetic constant for viral thymidine kinase of Herpes simplex virus (HSV) -2

Ki [1]: 140 nM
Ki [2]: 950 nM
SMILES: O=c1[nH]c(=O)n([C@@H]2O[C@H](CO)[C@@H](O)[C@@H]2F)cc1I [FIALURIDINE]
